Experimental data published in patent US7135292B2, “Analysis and modification of gene expression in marine invertebrate cells” (Harbor Branch Oceanographic Institution, Inc., priority 2002, dated 2006).

Test system: Axinella corrugata cell cultures
Experiment: Human-sequence microarray (Gene Filters) analysis of gene expression, PHA-treated vs untreated sponge cell cultures
Type: cell-based
Description: Sponge Cells. Cells were obtained from cryopreserved stocks at Harbor Branch Oceanographic Institution. All cells were derived from Axinella corrugata specimens collected in the waters of Florida, the Bahamas, and the Caribbean Sea, and were cryopreserved according to Pomponi et al. (Pomponi et al. 1997b supra). This sponge is relatively common and easy to collect, amenable to culture efforts, and produces the bioactive compound, stevensine, in vitro (Pomponi et al. 1997b supra). Enriched fractions of dissociated sponge cells were prepared, cryopreserved, and thawed according to previously published methods (Pomponi et al. 1997b supra). Cells were incubated at 22–25° C. in a growth medium consisting of a modified and supplemented commercial formulation (Willoughby and Pomponi 2000 supra). The length of the incubation period was based on my unpublished observation of elevated DNA and protein contents (9%, P=0.034, and 9%, P=0.038, respectively) in PHA-treated cultures, according to fluorescent assays of 6 replicate comparisons (Willoughby and Pomponi 2000 supra). Since the effects were observed between 6 and 18 hours after treatment, cells were cultured for 12-hour periods representing the center point of the period of observed changes. Two sets of cultures were incubated with approximately 2×10^8 cells per T-75 flask—a control set and an experimental set treated with 1.5% phytohemagglutinin (PHA) (Life Technologies, M-form).
RNA Isolation. RNA isolation was performed on unrinsed, pelleted cells. Pellets were quickly frozen in a dry ice alcohol bath and stored at −70° C. until RNA isolation. The Qiagen RNeasy® protocol was used, with the following modifications. Samples were disrupted with a micropestle or homogenized by the rotor-stator method, using twice the recommended volume of lysis solution. Prior to column loading, samples were centrifuged through a Qiashredder® column to complete homogenization and remove insoluble material. Supernatant was collected for use in the rest of the protocol. During the first wash step, samples were incubated on the column with DNase 1 (Qiagen or Ambion) for 15 minutes. After the final wash, samples were incubated on the column with the RNase free elution water for 15 minutes prior to elution. Sub-samples were diluted 20× and quantified on a Genequant® spectrophotometer.
cDNA Labeling. Sub-samples of the isolated total RNA (8 μl) were primed with oligo dT (10–20 mer) (Research Genetics, Inc.) for 10 minutes at 70° C., then briefly chilled on ice, followed by addition of 2 volumes of RT cocktail based upon the Life Technologies Superscript II® protocol (containing dATP, dGTP, dTTP, and α-^33P dCTP [NEN Easy Tides®, 3000 Ci/mmol]). The mixture was incubated for 90 minutes at 37° C., and diluted to 100 μl for purification on a Bio-Spin column (Boi-Rad) according to the Gene Filter® (Research Genetics, Inc.) recommended protocol. The resultant labeled probes were then denatured for 3 minutes in a boiling water bath prior to incorporation into the hybridization solution.
Microarrays. Research Genetics Gene Filters®, version 211, were employed in this study. These microarrays feature over 4000 distinct sequence-verified genes spotted onto a 5×7 cm nylon membrane. The DNA at each spot represents approximately 1 kb from the 3′ end of the gene. The microarrays also include spots of total genomic DNA (see FIG. 5). The 211 series is constructed from human sequences. A cross-referenced database listing of all the genes represented on the array is available at http://www.resgen.com. The 2 genes referenced in this work carry the I.M.A.G.E. Consortium (Lennon, G. G., C. Auffray, M. Polymeropoulos and M. B. Soares 1996, Genomics 33:151–152), Clone IDs 81408 (calcineurin B) and 858292 (cdc10).
Hybridization. […]

phytohemagglutinin [PHA]
Ratio, Small inducible cytokine A11 (eotaxin) (No. 56, PHA treated/untreated, 12 h): 0.493
Ratio, Major histocompatibility complex, class II, DR beta 5 (No. 57, PHA treated/untreated, 12 h): 0.255
Ratio, Evi-1 (No. 58, PHA treated/untreated, 12 h): 0.159
Ratio, Homo sapiens thrombospondin 3 (THBS3) gene, complete cds (No. 59, PHA treated/untreated, 12 h): 0.019
Ratio, RhoE (No. 60, PHA treated/untreated, 12 h): 0.312
Ratio, Human bone morphogenetic protein-3b (No. 61, PHA treated/untreated, 12 h): 0.209
Ratio, Vitamin K-dependent gamma-B74carboxylase (No. 62, PHA treated/untreated, 12 h): 2.101
Ratio, Homo sapiens cdc14 homolog mRNA, complete cds (No. 63, PHA treated/untreated, 12 h): 11.905
Ratio, Homo sapiens, alpha-1 (VI) collagen (No. 64, PHA treated/untreated, 12 h): 2.509
Ratio, Homo sapiens BAI 3 mRNA, complete cds (No. 65, PHA treated/untreated, 12 h): 3.228
Ratio, Human TFIIB related factor hBRF (HBRF) mRNA, complete cds (No. 66, PHA treated/untreated, 12 h): 0.118
Ratio, Human capping protein alpha mRNA, partial cds (No. 67, PHA treated/untreated, 12 h): 2.650
Ratio, Human melanocyte-specific gene 1 (msg1) mRNA, complete cds (No. 68, PHA treated/untreated, 12 h): 0.390
Ratio, Ras-like protein TC21 (No. 69, PHA treated/untreated, 12 h): 2.737
Ratio, Homo sapiens mRNA for inositol 1,4,5-trisphosphate 3-kinase isoenzyme, partial cds (No. 70, PHA treated/untreated, 12 h): 0.494
Ratio, Homo sapiens clone 23619 phosphoprotein mRNA, partial cds (No. 71, PHA treated/untreated, 12 h): 0.296
Ratio, Human lysosomal glycosylasparaginase (AGA) gene (No. 72, PHA treated/untreated, 12 h): 0.317
Ratio, COUP transcription factor (No. 73, PHA treated/untreated, 12 h): 0.080
Ratio, Human mRNA for prepro cortistatin like peptide, complete cds (No. 74, PHA treated/untreated, 12 h): 3.616
Ratio, Homo sapiens mRNA for repressor protein, partial cds (No. 75, PHA treated/untreated, 12 h): 0.483
Ratio, N-Terminal acetyltransferase complex ARD1 subunit homolog + B88 (No. 76, PHA treated/untreated, 12 h): 0.275
Ratio, Human alpha-tubulin isotype H2-alpha gene, last exon (No. 77, PHA treated/untreated, 12 h): 0.264
Ratio, Human alpha-cardiac actin gene, 5′ flank and (No. 78, PHA treated/untreated, 12 h): 0.402
Ratio, Homo sapiens MAD-related gene SMAD7 (SMAD7) mRNA, complete cds (No. 79, PHA treated/untreated, 12 h): 3.829
Ratio, Human ETS2 oncogene (No. 80, PHA treated/untreated, 12 h): 2.260
Ratio, Human mRNA for alpha-catenin, complete cds (No. 81, PHA treated/untreated, 12 h): 0.147
Ratio, Human mRNA for TESK1, complete cds (No. 82, PHA treated/untreated, 12 h): 0.282
Ratio, Homo sapiens DnaJ protein (HSPF2) mRNA, complete cds (No. 83, PHA treated/untreated, 12 h): 0.206
Ratio, Keratin, type I cytoskeletal 20 (No. 84, PHA treated/untreated, 12 h): 0.283
Ratio, Homo sapiens FMRFamide-related prepropeptide mRNA, complete cds (No. 85, PHA treated/untreated, 12 h): 2.156
Ratio, H. sapiens mRNA for p40 (No. 86, PHA treated/untreated, 12 h): 7.841
Ratio, Homo sapiens mRNA for p115, complete cds (No. 87, PHA treated/untreated, 12 h): 0.477
Ratio, Factor VIII intron 22 protein (No. 88, PHA treated/untreated, 12 h): 0.490
Ratio, Human RNA polymerase II subunit hsRPB7 mRNA, complete cds (No. 89, PHA treated/untreated, 12 h): 0.441
Ratio, Homo sapiens mRNA for osteomodulin, complete cds (No. 90, PHA treated/untreated, 12 h): 0.354
Ratio, Hemoglobin zeta chain (No. 91, PHA treated/untreated, 12 h): 11.817
Ratio, Human cartilage-specific homeodomain protein Cart-1 mRNA, complete cds (No. 92, PHA treated/untreated, 12 h): 0.201
Ratio, Human cytochrome bc-1 complex core protein II mRNA, complete cds (No. 93, PHA treated/untreated, 12 h): 0.325
Ratio, H. sapiens mRNA for Ndr protein kinase (No. 94, PHA treated/untreated, 12 h): 0.435
Ratio, Human HEM45 mRNA, complete cds (No. 95, PHA treated/untreated, 12 h): 0.114
Ratio, C-1-tetrahydrofolate synthase, cytoplasmic (No. 96, PHA treated/untreated, 12 h): 2.966
Ratio, Homo sapiens mRNA for transducin (beta) like 1 protein (No. 97, PHA treated/untreated, 12 h): 0.091
Ratio, Human Bcl-2 related (Bfl-1) mRNA, complete cds (No. 98, PHA treated/untreated, 12 h): 0.472
Ratio, H. sapiens mRNA for InsP3 5-phosphatase (No. 99, PHA treated/untreated, 12 h): 0.215
Ratio, H. sapiens mRNA for 17-beta-hydroxysteroid dehydrogenase (No. 100, PHA treated/untreated, 12 h): 0.432
Ratio, Ubiquitin carboxyl-terminal hydrolase isozyme L3 (No. 101, PHA treated/untreated, 12 h): 0.388
Ratio, Human putative tRNA synthetase-like protein mRNA, complete cds (No. 102, PHA treated/untreated, 12 h): 0.493
Ratio, Human galectin-4 (GAL4) mRNA, complete cds (No. 103, PHA treated/untreated, 12 h): 0.443
Ratio, Glycylpeptide N-tetradecanoyl transferase (No. 104, PHA treated/untreated, 12 h): 0.354
Ratio, H. sapiens LDLC mRNA (No. 105, PHA treated/untreated, 12 h): 0.395
Ratio, Human CREB-binding protein (CBP) mRNA, complete cds (No. 106, PHA treated/untreated, 12 h): 0.210
Ratio, Human enigma gene, complete cds (No. 107, PHA treated/untreated, 12 h): 0.496
Ratio, Human FEZ2 mRNA, partial cds (No. 108, PHA treated/untreated, 12 h): 0.283
calcineurin down-regulated by the PHA treatment (microarray) (approximately): 2–5 fold
cdc10 up-regulated by the PHA treatment (microarray) (approximately): 2–5 fold
